The record followed here is PubChem BioAssay (NCI).

Several values for one entry are separate records, joined by “and”; a condition that tells them apart may be missing. Equal values may be shown once.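 Cells were grown in 96-well plates and exposed to each compound for 48 hours at five concentrations; endpoints were interpolated linearly between bracketing concentrations, or set to the highest concentration if not reached. At the GI50, growth is halved. TGI denotes the concentration required for complete inhibition of growth.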

Test systems include DU-145 prostate; EKVX NSCLC; COLO 205 colon; UO-31 renal; MOLT-4 leukemia; NCI-H522 lung; A549 NSCLC; MCF7 breast.
Experiment in all cases: inhibition of tumour cell growth, NCI panel, 48 h

With `O=C(Nc1cccc(Cl)c1Cl)c1cccc(NC2=C(Cl)C(=O)N(Cc3ccccc3)C2=O)c1`, the GI50 in the test with DU-145 prostate is 21.2 µM; in the test with EKVX NSCLC, 34.2 µM; with COLO 205 colon it was more than 100 µM; with UO-31 renal, 21.1 µM; with MOLT-4 leukemia, 3.11 µM; in the test on NCI-H522 lung, 12.6 µM. Further, the results for the GI50 in the test with A549 NSCLC and in the test with MCF7 breast were 36.2 µM and 11.3 µM, respectively. Also, the TGI with DU-145 prostate was more than 100 µM; in the test with EKVX NSCLC, 89.2 µM; with COLO 205 colon, more than 100 µM; with UO-31 renal, more than 100 µM; with MOLT-4 leukemia it was 9.07 µM; in the test with NCI-H522 lung, 54.7 µM. In addition, the TGI with A549 NSCLC and in the test on MCF7 breast was more than 100 µM in each case.

In the case of `COc1ccc(/C=c2/sc3n(c2=O)C(c2ccc(OC)c(OC)c2)C2=C(N=3)c3cc(F)ccc3OC2)cc1` (stereo not drawn), the GI50 with DU-145 prostate is 43.3 µM; in the test with EKVX NSCLC it was 39.7 µM; in the test with COLO 205 colon, 30.1 µM; with UO-31 renal, 27.6 µM; in the test on MOLT-4 leukemia, more than 22.7 µM; in the test on NCI-H522 lung, 51.8 µM. Moreover, the GI50 in the test with A549 NSCLC and in the test with MCF7 breast was 23.6 µM each time. The TGI in the test on DU-145 prostate is more than 100 µM; with EKVX NSCLC, more than 100 µM; in the test with COLO 205 colon, more than 57.1 µM; with UO-31 renal, more than 77.7 µM; in the test on MOLT-4 leukemia, more than 100 µM; in the test on NCI-H522 lung it was more than 100 µM. Further, the TGI is more than 82 µM in the test on A549 NSCLC and more than 100 µM with MCF7 breast.

Consider `O=C(N/N=C\c1cc(Br)ccc1O)c1ccncc1`, for which the GI50 in the test with DU-145 prostate was 2.53 µM; in the test on EKVX NSCLC it was 1.8 µM; in the test on COLO 205 colon, 1.23 µM; in the test on UO-31 renal, 1.76 µM; with MOLT-4 leukemia, 0.551 µM; in the test with NCI-H522 lung, 2.17 µM. In addition, the GI50 is 4.27 µM in the test on A549 NSCLC and 1.55 µM in the test on MCF7 breast. The TGI with DU-145 prostate was more than 100 µM; in the test on EKVX NSCLC it was 38.5 µM; in the test on COLO 205 colon, 16.8 µM; with UO-31 renal, more than 100 µM; in the test on MOLT-4 leukemia it was 23.5 µM; with NCI-H522 lung it was 19.8 µM. Besides, the TGI in the test with A549 NSCLC is more than 100 µM; in the test with MCF7 breast, 7.25 µM.

Regarding `COc1cc2c(cc1OC)C13CCN4CC5=CCOC6CC(=O)N2C1C6C5CC43O` (stereo not drawn), the TGI with DU-145 prostate, with EKVX NSCLC, in the test on COLO 205 colon, with UO-31 renal, in the test with MOLT-4 leukemia and in the test on NCI-H522 lung was more than 100 µM each time. Also, the TGI with A549 NSCLC and in the test on MCF7 breast was more than 100 µM throughout.

For the compound `O=C(O)c1cc(O)c2c(c1)C(C1c3cc(C(=O)O)cc(O)c3C(=O)c3c(OC4OC(CO)C(O)C(O)C4O)cccc31)c1cccc(OC3OC(CO)C(O)C(O)C3O)c1C2=O` (stereo not drawn), the GI50 in the test with DU-145 prostate, in the test on EKVX NSCLC, with COLO 205 colon, with UO-31 renal, with MOLT-4 leukemia and with NCI-H522 lung was more than 100 µM each time. The GI50 in the test on A549 NSCLC and with MCF7 breast was more than 100 µM in each case. In addition, the TGI in the test on DU-145 prostate, in the test with EKVX NSCLC, in the test on COLO 205 colon, with UO-31 renal, in the test on MOLT-4 leukemia and with NCI-H522 lung was more than 100 µM each time. Also, the TGI with A549 NSCLC and with MCF7 breast was more than 100 µM each time.

In the case of `O=C(Nc1cccc(Cl)c1)c1cc2ccccc2cc1O`, the GI50 was 3.07 µM and 2.38 µM with DU-145 prostate; 2.76 µM and 2.05 µM in the test on EKVX NSCLC; 19.1 µM and 13.6 µM in the test with COLO 205 colon; 0.34 µM in the test on UO-31 renal; 4.07 µM and 4.04 µM in the test with MOLT-4 leukemia; 1.03 µM and 0.583 µM with NCI-H522 lung. Moreover, the GI50 with A549 NSCLC was 3.63 µM and 3.31 µM; with MCF7 breast it was 2.66 µM and 2.12 µM. The TGI in the test on DU-145 prostate is more than 100 µM; with EKVX NSCLC, more than 100 µM; in the test with COLO 205 colon it was > 100 µM and 79 µM; with UO-31 renal it was more than 100 µM; with MOLT-4 leukemia it was more than 100 µM; in the test on NCI-H522 lung, 7.09 µM and 7.92 µM. The TGI in the test with A549 NSCLC and in the test with MCF7 breast was more than 100 µM in each case.

For the compound `O=C(CN(C1CCCCC1)C1CCCCC1)Nc1ccc(S(=O)(=O)c2ccc(NC(=O)CN(C3CCCCC3)C3CCCCC3)cc2)cc1`, the GI50 with DU-145 prostate is 1.14 µM; with EKVX NSCLC, 1.41 µM; with COLO 205 colon, 0.28 µM; in the test with UO-31 renal, 1.24 µM; in the test with MOLT-4 leukemia it was 0.293 µM; with NCI-H522 lung, 0.394 µM. The GI50 in the test with A549 NSCLC was 1.33 µM; with MCF7 breast, 0.299 µM. Besides, the TGI was determined as 2.38 µM in the test with DU-145 prostate; 2.88 µM in the test on EKVX NSCLC; 0.841 µM in the test with COLO 205 colon; 2.56 µM with UO-31 renal; 2.7 µM in the test on MOLT-4 leukemia; 1.24 µM in the test on NCI-H522 lung. Also, the TGI in the test on A549 NSCLC amounted to 3.26 µM; in the test on MCF7 breast, 1.62 µM.

`Cc1cc(NC(=O)c2ccc(C)c(Nc3nccc(-c4cccnc4)n3)c2)cc(-n2cnc(C)c2)c1`: the GI50 in the test with DU-145 prostate is 1.96 µM; with EKVX NSCLC, 4.27 µM; in the test with COLO 205 colon, 2.4 µM; in the test on UO-31 renal it was 1.97 µM; with MOLT-4 leukemia, 15.6 µM; with NCI-H522 lung, 4.89 µM. Moreover, the figures for the GI50 with A549 NSCLC and in the test on MCF7 breast were 0.492 µM and 1.86 µM, respectively. Moreover, the TGI was 9.06 µM in the test with DU-145 prostate; 21.4 µM with EKVX NSCLC; 7.23 µM in the test with COLO 205 colon; 5.3 µM with UO-31 renal; more than 50 µM in the test on MOLT-4 leukemia; 15.3 µM with NCI-H522 lung. Also, the TGI in the test on A549 NSCLC turned out to be 8.7 µM; with MCF7 breast it was 9.19 µM.

For `COC(COC(=O)N1CCN(C=O)CC1)C1=C(N2CC2)C(=O)C(C)=C(N2CC2)C1=O` (stereo not drawn), the TGI in the test with DU-145 prostate was determined as 4.01 µM; in the test on EKVX NSCLC, 10.9 µM; in the test on COLO 205 colon, 0.897 µM; in the test with UO-31 renal, 3.19 µM; in the test with MOLT-4 leukemia, 14.1 µM; in the test with NCI-H522 lung, 0.26 µM. Besides, the TGI in the test on A549 NSCLC is 2.71 µM; in the test with MCF7 breast, 1.07 µM.
